Measured values: patent publication US20210087159A1, “TETRAHYDROCANNABINOLIC- CA[…] DERIVATIVES AND USES THEREOF” (AL&AM […]., priority 2018, published 2021)

Key:
Assay type in all cases: cell-based
U251, brain human glioma = test: CellTiter-Glo cell viability assay, cancer cell cytotoxicity/anti-proliferation panel (Chempartner); settings: for IC50: Homo sapiens, U-251, 72 h, read-out: IC50 (absolute IC50); for Inhibition: U251, 72 hours, compounds 10 μM starting, STS 2 μM starting, 10-pt, 3-fold dilution
TNF-α = test: LPS induced cytokine release assay, TNF-α by ELISA in PBMCs; settings: human PBMCs; for TNF-α: 72 h, ELISA (LPS control 18.16); for change of TNF-α expression in LPS-treated cells: tested concentrations of 1 M and 10 M (so in the source)
From the text: This study was aimed to test the effect of 12 compounds (THCA, Ia1, Ia5, Ia6, Ia9, Ia11, Ia15, Ia17, Ia24, Ia25, Ia27, and Ia28) on human peripheral blood mononuclear cells (PBMCs) challenged by lipopolysaccharide (LPS) through monitoring multiple inflammatory endpoints.
Blood samples were collected from healthy volunteers according to protocols that have been reviewed and approved by the Chempartner Institutional Ethic Committee (IEC) upon signing an Informed Consent Form (ICF).
Fresh PBMCs were isolated and seeded into 96-well plate, and diluted solutions of the tested compounds and 0.1 μg/mL LPS were then added (in triplicates). To serve as control, 3 wells with PBMCs only, 3 wells with 0.1 μg/mL LPS, and 2 wells with 1 μg/mL dexamethasone (Dex) and 0.1 μg/mL LPS were included. After 72 hours incubation, supernatant was collected for tumor necrosis factor-α (TNF-α) measurement by enzyme-linked immunosorbent assay (ELISA), and cell pellets were harvested for cell proliferation measurement by CellTiter-Glo® Luminescent Cell Viability Assay (CTG).
The human blood sample from an individual donor was diluted by the same volume of sterile phosphate buffered solution (PBS) and mixed sufficiently by gentle shake. 15 mL Lymphoprep™ medium was transferred into a new 50 mL centrifuge tube, and the diluted blood sample (30 mL) was then carefully added onto the surface of the medium, which consequently contained Ficoll 400 and blood in a volume ratio of 1:2. Four interfaces were observed after centrifugation, which are, from top to bottom, layers of plasma, mononuclear cells, Ficoll medium, and red blood cells (RBCs). Plasma was absorbed, and mononuclear cells were then transferred into another new sterile centrifuge tube. Then, sterile PBS buffer was added into the collected PBMCs for washing, at a volume ratio of 3:1. PBMCs were washed with 5-10 mL PBS twice before cell counting with cytometer. Cells were centrifuged at 350×g, for 10 min, at 20° C. with the acceleration (5) and deceleration (5) settings during the centrifugation. The cells were resuspended with RPMI 1640 complete medium (containing 10% FBS) for assay, and the density was adjusted with RPMI 1640 complete medium to the final concentration of 2E6 cells/mL. Cells suspension of the PBMCs (100 μL/well) were seeded into 96-well plate (#3903).
Diluted solutions of the tested compounds were prepared with RPMI 1640 complete medium according to the following layout. Compounds were prepared at 5-fold of concentration (50 μM), and then were diluted to the working concentration of 10 μM with RPMI 1640 complete medium and made 10-fold serially dilution (2 points). The diluted compounds (50 μL/well) were added to the indicated wells, and the plate was incubated at 37° C., 5% CO2, for 72 h.
LPS (0.1 μg/mL, 100 μL) was added into each well. Dex (1 μg/mL) was included as a positive control. Plate was incubated at 37° C., 5% CO2 for 72 h. Supernatant was collected to measure TNF-α by ELISA. Cell proliferation was detected by CTG.

A549 (lung carcinoma) = test: XTT cytotoxicity assay (Pharma Seed); settings: Homo sapiens, 48 hours, 20, 10, 5, 1 μM, assay medium 1% FBS
Protocol: (§1) In this study, the cytotoxicity of several compounds of the present invention on lung and pancreatic cancer cell was evaluated.
(§2) A549 (lung carcinoma) culture medium: F12-K, supplemented with 10% FBS (heat inactivated), 2 mM L-glutamine, and 1% of Pen/Strep/Amp solution. A549 assay medium: F12-K, supplemented with 1% FBS (heat inactivated), 2 mM L-glutamine, and 1% of Pen/Strep/Amp solution.
(§3) Each of the tested compounds was dissolved in DMSO to reach a stock concentration of 20 mM (and stored at −15° C.-−25° C. until use. Compound Ia28 (MW 484 g/mol, 3.05 mg total) was dissolved in 0.315 mL; compound Ia9 (MW 484 g/mol, 2.33 mg total) was dissolved in 0.241 mL; and compound Ia6 (MW 428.3 g/mol, 2.25 mg total) was dissolved in 0.262 mL.
(§4) On the day of incubation with the cells, each compound was diluted in DMSO to reach 2 mM, 1 mM, 0.5 mM, 0.1 mM stock concentrations (1:10, 1:20, 1:40 and 1:200), and each of these stocks was further diluted in assay medium 1:100 for final concentration of 20 μM, 10 μM, 5 μM, and 1 μM.
(§5) Part 1—cell number calibration. PANC-1 and A549 cells were each plated in a 96 well plate, in their culture medium, at various cell concentrations per well, in triplicates, and were allowed to attach for 24 hours. Thereafter, culture medium was discarded, assay medium was added, and the cells were incubated for additional 72 hours. Finally, assay medium was discarded, and fresh culture medium was added to the cells along with 50 μl XTT reagent. The OD was measured every two hours for 6 hours (three times).
(§6) The highest cells number/well were chosen for part 2 as follows: PANC-1 at 7,500 cells per well, A549 at 5000 cells per well.
Part 2—cells incubation with tested compounds. PANC-1 and A549 cells were plated in a 96 well plate, in their culture medium, at the optimal cell concentration according to the results from the previous section and were allowed to attach for 24 hours. […] The OD was measured at the optimal time point according to the results in the previous section.

[1] = tested on: PANC-1 (pancreatic carcinoma); test: XTT cytotoxicity assay (Pharma Seed); settings: Homo sapiens, 48 hours, 20, 10, 5, 1 μM, assay medium 1% FBS
Protocol: as §1
as §2, with “PANC-1 (pancreatic” for “A549 (lung”, “DMEM (High Glucose),” for “F12-K,”, “PANC-1” for “A549”
as §3, §4, §5, §6
Part 2—cells incubation with tested compounds. PANC-1 and A549 cells were plated in a 96 well plate, in their culture medium, at the optimal cell concentration according to the results from the previous section and were allowed to attach for 24 hours. Thereafter, the culture medium was discarded, and fresh assay medium was added to the cells, supplemented with elevating compound concentrations. Triton 0.1% was used as positive control for cell death. The cells were incubated for another 48 hours (TBD upon microscopic observation). Finally, fresh culture medium was added to the cells along with 50 μl XTT reagent. The OD was measured at the optimal time point according to the results in the previous section.

| SMILES | IC50 (U251, brain human glioma) | Inhibition (U251, brain human glioma) | TNF-α (TNF-α; compound 1 μM + 0.1 μg/mL LPS) | TNF-α (TNF-α; compound 10 μM + 0.1 μg/mL LPS) | change of TNF-α expression in LPS-treated cells (TNF-α) | IC50 (A549 (lung carcinoma)) | IC50 [1] |
| --- | --- | --- | --- | --- | --- | --- | --- |
| CCCCCc1cc2c(c(O)c1C(=O)O)[C@@H]1C=C(C)CC[C@H]1C(C)(C)O2 [THCA, tetrahydrocannabinolic acid, reference compound] | > 10 µM | 17.22% | 21.04 pg/mL | 27.57 pg/mL | increased TNF-α expression |  |  |
| CCCCCc1cc2c(c(O)c1C(=O)NCCN(C)C)[C@@H]1C=C(C)CC[C@H]1C(C)(C)O2 [Ia6, (6aR,0aR)—N-(2-(dimethylamino)ethyl)-1-hydroxy-6,6,9-trimethyl-3-pentyl-6a,7,8,10a-tetrahydro-6H-benzo[c]chromene-2-carboxamide] | 7.23 µM | 70.02% | 17.09 pg/mL | 49.73 pg/mL | increased TNF-α expression | 5.2 µM | 9.4 µM |
| C=C(C)[C@@H]1CCC(C)=C[C@H]1c1c(O)cc(CCCCC)c(C(=O)NCCCN2CCOCC2)c1O [Ia28, (1′R,2′R)-2,6-dihydroxy-5′-methyl-N-(3-morpholinopropyl)-4-pentyl-2′-(prop-1-en-2-yl)-1′,2′,3′,4′-tetrahydro-[1,1′-biphenyl]-3-carboxamide] |  |  | 41.38 pg/mL | 22.35 pg/mL | decreased TNF-α expression | 11 µM | 19 µM |
| CCCCCc1cc2c(c(O)c1C(=O)NCCCN1CCOCC1)[C@@H]1C=C(C)CC[C@H]1C(C)(C)O2 [Ia9, (6aR,0aR)-1-hydroxy-6,6,9-trimethyl-N-(3-morpholinopropyl)-3-pentyl-6a,7,8,10a-tetrahydro-6H-benzo[c]chromene-2-carboxamide] | 8.91 µM | 68.11% | 20.26 pg/mL | 45.82 pg/mL | increased TNF-α expression | 7.8 µM | 11.4 µM |
